Experimental data from PubChem BioAssay (NCI).
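1) Cells in 96-well plates. 2) Compound, 48 h, 5 concentrations. 3) Linear interpolation between surrounding doses. 4) Unreached endpoint = highest concentration. TGI marks complete inhibition of growth.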

How the values were obtained:
Assay in all cases: DTP human tumour cell line panel, 48 h
786-0 renal = tested on: 786-0 renal
A498 renal = tested on: A498 renal
ACHN renal = tested on: ACHN renal
CAKI-1 renal = tested on: CAKI-1 renal
CCRF-CEM leukemia = tested on: CCRF-CEM leukemia
COLO 205 colon = tested on: COLO 205 colon
DLD-1 colon = tested on: DLD-1 colon
DU-145 prostate = tested on: DU-145 prostate
EKVX NSCLC = tested on: EKVX NSCLC
HCC-2998 colon = tested on: HCC-2998 colon
HCT-15 colon = tested on: HCT-15 colon
HL-60(TB) leukemia = tested on: HL-60(TB) leukemia
HOP-18 NSCLC = tested on: HOP-18 NSCLC
HOP-62 NSCLC = tested on: HOP-62 NSCLC
HOP-92 NSCLC = tested on: HOP-92 NSCLC
HT29 colon = tested on: HT29 colon
IGROV1 ovarian = tested on: IGROV1 ovarian
K-562 leukemia = tested on: K-562 leukemia
KM12 colon = tested on: KM12 colon
KM20L2 colon = tested on: KM20L2 colon
MALME-3M melanoma = tested on: MALME-3M melanoma
MOLT-4 leukemia = tested on: MOLT-4 leukemia
NCI-H226 lung = tested on: NCI-H226 lung
NCI-H522 lung = tested on: NCI-H522 lung
NCI/ADR-RES ovarian = tested on: NCI/ADR-RES ovarian
OVCAR-3 ovarian = tested on: OVCAR-3 ovarian
OVCAR-5 ovarian = tested on: OVCAR-5 ovarian
RXF 393 renal = tested on: RXF 393 renal
SF-295 CNS = tested on: SF-295 CNS
SF-539 CNS = tested on: SF-539 CNS
SK-MEL-2 melanoma = tested on: SK-MEL-2 melanoma
SK-MEL-5 melanoma = tested on: SK-MEL-5 melanoma
SK-OV-3 ovarian = tested on: SK-OV-3 ovarian
SN12C renal = tested on: SN12C renal
SNB-75 CNS = tested on: SNB-75 CNS
SR leukemia = tested on: SR leukemia
TK-10 renal = tested on: TK-10 renal
UACC-62 melanoma = tested on: UACC-62 melanoma
UO-31 renal = tested on: UO-31 renal
A549 NSCLC = tested on: A549 NSCLC
DMS 273 small cell lung = tested on: DMS 273 small cell lung
HCT-116 colon = tested on: HCT-116 colon
LOX IMVI melanoma = tested on: LOX IMVI melanoma
LXFL 529 NSCLC = tested on: LXFL 529 NSCLC
M14 melanoma = tested on: M14 melanoma
M19-MEL melanoma = tested on: M19-MEL melanoma
NCI-H23 lung = tested on: NCI-H23 lung
NCI-H460 lung = tested on: NCI-H460 lung
OVCAR-4 ovarian = tested on: OVCAR-4 ovarian
OVCAR-8 ovarian = tested on: OVCAR-8 ovarian
SF-268 CNS = tested on: SF-268 CNS
SK-MEL-28 melanoma = tested on: SK-MEL-28 melanoma
SNB-19 CNS = tested on: SNB-19 CNS
SNB-78 CNS = tested on: SNB-78 CNS
SW-620 colon = tested on: SW-620 colon
U251 CNS = tested on: U251 CNS
UACC-257 melanoma = tested on: UACC-257 melanoma
DMS 114 small cell lung = tested on: DMS 114 small cell lung
RPMI-8226 leukemia = tested on: RPMI-8226 leukemia

Measured: TGI

CCCCC(=O)OC[n+]1ccc2c(C)c3[nH]c4ccccc4c3c(C)c2c1
1.63 µM: K-562 leukemia
2.33 µM: NCI-H522 lung
2.98 µM: MALME-3M melanoma
11.5 µM: SK-MEL-2 melanoma
1.59 µM: HCT-15 colon
4.08 µM: CCRF-CEM leukemia
0.978 µM: HCC-2998 colon
1.82 µM: OVCAR-5 ovarian
2.05 µM: HOP-62 NSCLC
2.52 µM: RXF 393 renal
1.97 µM: SF-295 CNS
5.01 µM: TK-10 renal
2.64 µM: SK-OV-3 ovarian
3.01 µM: MOLT-4 leukemia
2.73 µM: DU-145 prostate
4.56 µM: CAKI-1 renal
2 µM: KM12 colon | SF-539 CNS | SN12C renal
2.59 µM: SNB-75 CNS
3.04 µM: EKVX NSCLC
3.69 µM: UO-31 renal
2.79 µM: KM20L2 colon
2.31 µM: SR leukemia
2.54 µM: OVCAR-3 ovarian
2.06 µM: NCI-H226 lung
6.23 µM: IGROV1 ovarian
6.44 µM: HOP-92 NSCLC
2.22 µM: COLO 205 colon
1.81 µM: ACHN renal
1.62 µM: 786-0 renal
9.74 µM: HOP-18 NSCLC
2.93 µM: HL-60(TB) leukemia | NCI/ADR-RES ovarian
2.62 µM: A498 renal
1.72 µM: UACC-62 melanoma
2.44 µM: HT29 colon
2.84 µM: SK-MEL-5 melanoma
1.64 µM: DLD-1 colon

CN(Cc1ccccc1)C(=NC#N)N(C)Cc1ccccc1
> 100 µM: 786-0 renal | A549 NSCLC | ACHN renal | CAKI-1 renal | COLO 205 colon | DLD-1 colon | DMS 273 small cell lung | EKVX NSCLC | HCC-2998 colon | HCT-116 colon | HCT-15 colon | HOP-62 NSCLC | HOP-92 NSCLC | HT29 colon | IGROV1 ovarian | KM12 colon | KM20L2 colon | LOX IMVI melanoma | LXFL 529 NSCLC | M14 melanoma | M19-MEL melanoma | NCI-H23 lung | NCI-H460 lung | NCI-H522 lung | OVCAR-3 ovarian | OVCAR-4 ovarian | OVCAR-8 ovarian | SF-268 CNS | SF-295 CNS | SF-539 CNS | SK-MEL-2 melanoma | SK-MEL-28 melanoma | SK-MEL-5 melanoma | SK-OV-3 ovarian | SN12C renal | SNB-19 CNS | SNB-78 CNS | SW-620 colon | TK-10 renal | U251 CNS | UACC-257 melanoma | UACC-62 melanoma | UO-31 renal

COC(=O)c1ccc(Cl)cc1NC(=O)C1CCCCC1
> 100 µM: 786-0 renal | A549 NSCLC | ACHN renal | CAKI-1 renal | COLO 205 colon | DMS 114 small cell lung | DMS 273 small cell lung | EKVX NSCLC | HCC-2998 colon | HCT-116 colon | HCT-15 colon | HOP-92 NSCLC | HT29 colon | K-562 leukemia | KM12 colon | KM20L2 colon | LXFL 529 NSCLC | M19-MEL melanoma | MALME-3M melanoma | MOLT-4 leukemia | NCI-H226 lung | NCI-H23 lung | NCI-H522 lung | OVCAR-3 ovarian | OVCAR-4 ovarian | OVCAR-5 ovarian | OVCAR-8 ovarian | RPMI-8226 leukemia | RXF 393 renal | SF-268 CNS | SF-295 CNS | SF-539 CNS | SK-MEL-2 melanoma | SK-MEL-28 melanoma | SN12C renal | SNB-19 CNS | SNB-78 CNS | SR leukemia | SW-620 colon | TK-10 renal | U251 CNS | UACC-257 melanoma | UO-31 renal
